# In US12077503B2, “Substituted cyclic amides and their use as herbicides” (FMC CORPORATION, priority 2015, dated 2024):
# Experiments:
# Assay type in all cases: in vivo
# corn (Zea mays) [1] = experiment: Test G Pre-Emergence Protocol; conditions: Zea mays, pre-emergence, 312 h, evaluated after 13 days; for plant injury at 15.625 g/ha: 15.625 g ai/ha; for plant injury at 15.625 g/ha / plant injury at 250 g/ha: read-out: Corn damage rating (100=total damage to plant; 0=no damage to plant); for plant injury at 62.5 g/ha: 62.5 g ai/ha, 100=total damage to plant, 0=no damage to plant, read-out: plant damage rating, Corn; for plant injury at 250 g/ha: 250 g ai/ha
# Summary of the method: (§1)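 Glasshouse pre-emergence test: soil-sown seeds, sprayed after 1 d at 15.625, 62.5 or 250 g/ha. Conditions 24/16° C day/night, 14 h light, 65% humidity, watering twice daily. Rating 13 d post-spray (100 = total damage).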
# [2] = system: redroot pigweed (Amaranthus retroflexus); experiment: Test G Pre-Emergence Protocol; conditions: Amaranthus retroflexus, pre-emergence, 312 h, evaluated after 13 days; for pest or weed control at 15.625 g/ha: 15.625 g ai/ha; for pest or weed control at 15.625 g/ha / pest or weed control at 250 g/ha: read-out: Pigweed, Redroot damage rating (100=total damage to plant; 0=no damage to plant); for pest or weed control at 62.5 g/ha: 62.5 g ai/ha, 100=total damage to plant, 0=no damage to plant, read-out: plant damage rating, Pigweed, Redroot; for pest or weed control at 250 g/ha: 250 g ai/ha
# Summary of the method: as §1
# [3] = system: velvetleaf (Abutilon theophrasti); experiment: Test G Pre-Emergence Protocol; conditions: Abutilon theophrasti, pre-emergence, 312 h, evaluated after 13 days; for pest or weed control at 15.625 g/ha: 15.625 g ai/ha; for pest or weed control at 15.625 g/ha / pest or weed control at 250 g/ha: read-out: Velvetleaf damage rating (100=total damage to plant; 0=no damage to plant); for pest or weed control at 62.5 g/ha: 62.5 g ai/ha, 100=total damage to plant, 0=no damage to plant, read-out: plant damage rating, Velvetleaf; for pest or weed control at 250 g/ha: 250 g ai/ha
# Summary of the method: as §1
# [4] = system: barnyardgrass (Echinochloa crus-galli); experiment: Test G Pre-Emergence Protocol; conditions: Echinochloa crus-galli, pre-emergence, 312 h, evaluated after 13 days; for pest or weed control at 15.625 g/ha: 15.625 g ai/ha, read-out: Barnyard grass damage rating (100=total damage to plant; 0=no damage to plant); for pest or weed control at 62.5 g/ha: 62.5 g ai/ha, 100=total damage to plant, 0=no damage to plant, read-out: plant damage rating, Barnyardgrass; for pest or weed control at 250 g/ha: 250 g ai/ha, read-out: Barnyardgrass damage rating (100=total damage to plant; 0=no damage to plant)
# Summary of the method: as §1
# [5] = system: giant foxtail (Setaria faberi); experiment: Test G Pre-Emergence Protocol; conditions: Setaria faberi, pre-emergence, 312 h, evaluated after 13 days; for pest or weed control at 15.625 g/ha: 15.625 g ai/ha; for pest or weed control at 15.625 g/ha / pest or weed control at 250 g/ha: read-out: Foxtail, Giant damage rating (100=total damage to plant; 0=no damage to plant); for pest or weed control at 62.5 g/ha: 62.5 g ai/ha, 100=total damage to plant, 0=no damage to plant, read-out: plant damage rating, Foxtail, Giant; for pest or weed control at 250 g/ha: 250 g ai/ha
# Summary of the method: as §1
# [6] = system: ivy-leaved morning glory (Ipomoea hederacea); experiment: Test G Pre-Emergence Protocol; conditions: Ipomoea, pre-emergence, 312 h, evaluated after 13 days; for pest or weed control at 15.625 g/ha: 15.625 g ai/ha, read-out: Morning-glory, Ivy-leaved damage rating (100=total damage to plant; 0=no damage to plant); for pest or weed control at 62.5 g/ha: 62.5 g ai/ha, 100=total damage to plant, 0=no damage to plant, read-out: plant damage rating, Morningglory, Ivy-leaved; for pest or weed control at 250 g/ha: 250 g ai/ha, read-out: Morningglory, Ivy-leaved damage rating (100=total damage to plant; 0=no damage to plant)
# Summary of the method: as §1
# corn (Zea mays) [7] = experiment: Test G Post-Emergence Protocol; conditions: Zea mays, post-emergence, 312 h; for plant injury at 15.625 g/ha: 15.625 g ai/ha, evaluated after 13 days (100=total damage to plant; 0=no damage to plant), read-out: Corn damage rating; for plant injury at 62.5 g/ha: 62.5 g ai/ha, read-out: Corn damage rating (100=total damage to plant; 0=no damage to plant); for plant injury at 62.5 g/ha / plant injury at 250 g/ha: evaluated after 13 days; for plant injury at 250 g/ha: 250 g ai/ha, read-out: damage to plant, Corn (100=total damage to plant; 0=no damage to plant)
# Summary of the method: (§2)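 Values are percent visual injury at 13 days after treatment (0 none, 100 total). Treatment was a post-emergence spray at 15.625, 62.5 or 250 g/ha on 8-day-old pot plants kept at 24/16 °C.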
# [8] = system: redroot pigweed (Amaranthus retroflexus); experiment: Test G Post-Emergence Protocol; conditions: Amaranthus retroflexus, post-emergence, 312 h; for pest or weed control at 15.625 g/ha: 15.625 g ai/ha, evaluated after 13 days (100=total damage to plant; 0=no damage to plant), read-out: Pigweed, Redroot damage rating; for pest or weed control at 62.5 g/ha: 62.5 g ai/ha, read-out: Pigweed, Redroot damage rating (100=total damage to plant; 0=no damage to plant); for pest or weed control at 62.5 g/ha / pest or weed control at 250 g/ha: evaluated after 13 days; for pest or weed control at 250 g/ha: 250 g ai/ha, read-out: damage to plant, Pigweed, Redroot (100=total damage to plant; 0=no damage to plant)
# Summary of the method: as §2
# [9] = system: velvetleaf (Abutilon theophrasti); experiment: Test G Post-Emergence Protocol; conditions: Abutilon theophrasti, post-emergence, 312 h; for pest or weed control at 15.625 g/ha: 15.625 g ai/ha, evaluated after 13 days (100=total damage to plant; 0=no damage to plant), read-out: Velvetleaf damage rating; for pest or weed control at 62.5 g/ha: 62.5 g ai/ha, read-out: Velvetleaf damage rating (100=total damage to plant; 0=no damage to plant); for pest or weed control at 62.5 g/ha / pest or weed control at 250 g/ha: evaluated after 13 days; for pest or weed control at 250 g/ha: 250 g ai/ha, read-out: damage to plant, Velvetleaf (100=total damage to plant; 0=no damage to plant)
# Summary of the method: as §2
# [10] = system: barnyardgrass (Echinochloa crus-galli); experiment: Test G Post-Emergence Protocol; conditions: Echinochloa crus-galli, post-emergence, 312 h; for pest or weed control at 15.625 g/ha: 15.625 g ai/ha, evaluated after 13 days (100=total damage to plant; 0=no damage to plant), read-out: Barnyardgrass damage rating; for pest or weed control at 62.5 g/ha: 62.5 g ai/ha, read-out: Barnyardgrass damage rating (100=total damage to plant; 0=no damage to plant); for pest or weed control at 62.5 g/ha / pest or weed control at 250 g/ha: evaluated after 13 days; for pest or weed control at 250 g/ha: 250 g ai/ha, read-out: damage to plant, Barnyardgrass (100=total damage to plant; 0=no damage to plant)
# Summary of the method: as §2
# [11] = system: giant foxtail (Setaria faberi); experiment: Test G Post-Emergence Protocol; conditions: Setaria faberi, post-emergence, 312 h; for pest or weed control at 15.625 g/ha: 15.625 g ai/ha, evaluated after 13 days (100=total damage to plant; 0=no damage to plant), read-out: Foxtail, Giant damage rating; for pest or weed control at 62.5 g/ha: 62.5 g ai/ha, read-out: Foxtail, Giant damage rating (100=total damage to plant; 0=no damage to plant); for pest or weed control at 62.5 g/ha / pest or weed control at 250 g/ha: evaluated after 13 days; for pest or weed control at 250 g/ha: 250 g ai/ha, read-out: damage to plant, Foxtail, Giant (100=total damage to plant; 0=no damage to plant)
# Summary of the method: as §2
# [12] = system: ivy-leaved morning glory (Ipomoea hederacea); experiment: Test G Post-Emergence Protocol; conditions: Ipomoea, post-emergence, 312 h; for pest or weed control at 15.625 g/ha: 15.625 g ai/ha, evaluated after 13 days (100=total damage to plant; 0=no damage to plant), read-out: Morningglory, Ivy-leaved damage rating; for pest or weed control at 62.5 g/ha: 62.5 g ai/ha, read-out: Morningglory, Ivy-leaved damage rating (100=total damage to plant; 0=no damage to plant); for pest or weed control at 62.5 g/ha / pest or weed control at 250 g/ha: evaluated after 13 days; for pest or weed control at 250 g/ha: 250 g ai/ha, read-out: damage to plant, Morningglory, Ivy-leaved (100=total damage to plant; 0=no damage to plant)
# Summary of the method: as §2
SMILES,plant injury at 15.625 g/ha (corn (Zea mays) [1]) [%],plant injury at 62.5 g/ha (corn (Zea mays) [1]) [%],plant injury at 250 g/ha (corn (Zea mays) [1]) [%],pest or weed control at 15.625 g/ha [2] [%],pest or weed control at 62.5 g/ha [2] [%],pest or weed control at 250 g/ha [2] [%],pest or weed control at 15.625 g/ha [3] [%],pest or weed control at 62.5 g/ha [3] [%],pest or weed control at 250 g/ha [3] [%],pest or weed control at 15.625 g/ha [4] [%],pest or weed control at 62.5 g/ha [4] [%],pest or weed control at 250 g/ha [4] [%],pest or weed control at 15.625 g/ha [5] [%],pest or weed control at 62.5 g/ha [5] [%],pest or weed control at 250 g/ha [5] [%],pest or weed control at 15.625 g/ha [6] [%],pest or weed control at 62.5 g/ha [6] [%],pest or weed control at 250 g/ha [6] [%],plant injury at 15.625 g/ha (corn (Zea mays) [7]) [%],plant injury at 62.5 g/ha (corn (Zea mays) [7]) [%],also measured
Cc1csc(NC(=O)[C@@H]2C(=O)N(C)C[C@H]2c2ccc(C(F)(F)F)cc2)c1C#N (racemic) [Compound 1576],0,0,20,0,0,20,0,0,0,30,70,90,30,70,70,0,0,0,0,20,plant injury at 250 g/ha (corn (Zea mays) [7]): 10%; pest or weed control at 15.625 g/ha [8]: 0%; pest or weed control at 62.5 g/ha [8]: 0%; pest or weed control at 250 g/ha [8]: 0%; pest or weed control at 15.625 g/ha [9]: 0%; pest or weed control at 62.5 g/ha [9]: 0%; pest or weed control at 250 g/ha [9]: 10%; pest or weed control at 15.625 g/ha [10]: 10%; pest or weed control at 62.5 g/ha [10]: 60%; pest or weed control at 250 g/ha [10]: 70%; pest or weed control at 15.625 g/ha [11]: 30%; pest or weed control at 62.5 g/ha [11]: 40%; pest or weed control at 250 g/ha [11]: 70%; pest or weed control at 15.625 g/ha [12]: 0%; pest or weed control at 62.5 g/ha [12]: 20%; pest or weed control at 250 g/ha [12]: 20%
CN1C[C@@H](c2ccc(C(F)(F)F)cc2)[C@H](C(=O)Nc2ccc(C#N)cc2Cl)C1=O (racemic) [Compound 1620],0,0,0,0,0,0,0,0,0,0,0,0,0,0,0,0,0,0,0,0,plant injury at 250 g/ha (corn (Zea mays) [7]): 0%; pest or weed control at 15.625 g/ha [8]: 0%; pest or weed control at 62.5 g/ha [8]: 0%; pest or weed control at 250 g/ha [8]: 0%; pest or weed control at 15.625 g/ha [9]: 0%; pest or weed control at 62.5 g/ha [9]: 0%; pest or weed control at 250 g/ha [9]: 0%; pest or weed control at 15.625 g/ha [10]: 0%; pest or weed control at 62.5 g/ha [10]: 0%; pest or weed control at 250 g/ha [10]: 0%; pest or weed control at 15.625 g/ha [11]: 0%; pest or weed control at 62.5 g/ha [11]: 0%; pest or weed control at 250 g/ha [11]: 0%; pest or weed control at 15.625 g/ha [12]: 0%; pest or weed control at 62.5 g/ha [12]: 0%; pest or weed control at 250 g/ha [12]: 0%
